Assay results: article PMC12053642, “Oral PRI-002 treatment in patients with MCI or mild AD: a randomized, double-blind phase 1b trial” (Nature Communications, 2025)
Values joined by “and” are separate entries in the source; they are usually repeats but may differ in a detail not shown here. Equal entries are not always repeated. “Also recorded” adds a separate entry of the source. Square brackets hold non-standard residues; d marks the D form. Peptide text beside a SMILES is read from it.

Assays:
t-tau = test: CSF t-tau, Lumipulse immunoassay; format: in vivo, human; settings: Day 28, n=9, 300 mg q.d. oral 28 d
Description: The effect of PRI-002 on cognition and function was tested by the CERAD+ battery and CDR-SB at baseline, Day 28, and Day 56, exploratory endpoints included the change of biomarkers (p-tau, t-tau, Aβ 1-40, Aβ 1-42 and Aβ oligomers) in CSF, blood plasma; change in CERAD+ test battery and CDR-SB scores.

[1] = Day 1 of the MAD study; dose 320 mg/person; cited from earlier work
Description: On the two test days (Day 1 and Day 28), plasma levels were highly variable (Fig. 1). Coefficient of variations (CVs) were clearly above 100% at 0.5 h after the first treatment and at the pre-treatment time of Day 28 (Supplementary Table 8). […] The high variability is due to a non-Gaussian data distribution. Mean maximum plasma levels on Day 1 (Day 28) of 4.46 ± 3.71 ng/ml (12.6 ...

[2] = test system: patients with MCI or mild dementia due to AD; test: CERAD word list learning and recall; format: in vivo, human; parameters: key to WL Recall (Word list recall test), Mean / WL Recall: words recalled after delay, out of the 10-word list; key to WL learn (CERAD Word list learning), Mean / WL learn: words recalled summed over 3 trials of a 10-word list; settings: for WL Recall / WL learn: individual patient values, PRI-002 group; for WL learn, individual patients: one line per patient
Description: The CERAD Word Learning Test is a part of the CERAD cognitive test battery and assesses memory function, particularly for ADe and other dementias[34],[35]. It includes three parts: immediate recall, delayed recall, and recognition. During the test administration, a list of 10 words is read aloud three times, with the participant recalling as many as possible after each trial (immediate recall). After a delay of 5–10 min, they attempt to recall the words again (delayed recall), followed by a recognition task where they identify original words from a mixed list (recognition). The scores from the CERAD Word Learning Test are interpreted using normative data, which consider the participant’s age, gender, and education level. Normal range scores are considered between the 16th and 84th percentiles (z-score -1 to +1). For MCI scores between the 2nd and 15th percentiles (z-score -1 to -2) are expected. For significant cognitive impairment scores below the 2nd percentile (z-score < -2) are considered.

[3] = test system: patients with MCI or mild dementia due to AD; test: Safety MRI (ARIA); format: in vivo, human; settings: MRI at screening, after Day 28 and Day 56, 300 mg q.d. oral 28 d, n=9
Description: For safety assessment during baseline, at Day 14, 28, and 56, laboratory parameters and vital signs were measured, a physical exam was performed, and ECGs were recorded per protocol. A safety MRI was performed at screening, a second one within 3 days after day 28 and a third one at Day 56. During baseline and at day 28, EEG measurements were performed. In addition, nature, frequency, severity, and timing of AEs and SAEs were recorded at day 14, 28, and 56. Standardized AE reports were provided and analysed by the Data Safety and Monitoring Board (DSMB).

[4] = Pharmacokinetics of PRI-002 in plasma; settings: 300 mg q.d. oral; for AUC(0-t): AUC 0-4 hours
Description: The effect on biomarker was assessed during baseline and after 28 days of medication. CSF collection and blood sampling were performed to determine PRI-002 concentration, which was conducted by Nuvisan (Neu-Ulm, Germany) and to exploratively estimate the effect of PRI-002 on the modulation of Aβ 1-40, Aβ 1-42, Aβ oligomers, total tau (t-tau), and phospho tau (p-tau). Aβ 1-40, Aβ 1-42, t-tau and p-tau181 were measured by immunoassay, using the Lumipulse platform (Fujirebio, Tokyo, Japan) and Aβ oligomers concentrations were determined using sFIDA technology[31]–[33] by attyloid GmbH (Düsseldorf, Germany). The effect of PRI-002 on cognitive and functional performance was measured by repetitively applying the CERAD+ battery and the Clinical Dementia Rating (CDR) at baseline, at Day 28 and additionally at the last visit (Day 56).
Secondary endpoints included the evaluation of pharmacokinetic characteristics of PRI-002 by determination of maximum plasma concentration (Cmax), time to reach maximum plasma concentration (Tmax), half-life (t1/2) calculated from PRI-002 plasma concentrations; and the determination of CSF concentrations of PRI-002.
4 Pharmacokinetic sampling X X
1 Heart rate and blood pressure: Day 1: at pre-dose and 2 hours±15 minutes; Day 14 and 28: at pre-
dose; 2 ECG Day 1: at pre-dose and 2 hours ± 15 minutes; Day 14 and 28: at pre-dose; 3 Safety
MRI was scheduled at screening and within three days after Day 28 and Day 56;4 Pharmacokinetic
sampling Day 1 and Day 28: at pre-dose, 30 minutes ± 15 minutes, 1 hour ± 15 minutes, 2
hours ± 15 minutes, and 4 hours ± 15 minutes.

[5] = PRI-002 concentration in CSF; format: in vivo, human
Description: In addition, also CSF levels of PRI-002 were determined. Due to non-specific binding of PRI-002 to vials used for sampling and storage the measured values, which are depicted in the Supplementary Table 7 are minimal values and the actual values will most probably be higher than reported here.
(11) Why were there no PK (drug concentration) assessments in CSF? Because BBB penetration in mice vs humans can diverge, matching CSF drug concentrations in human to those achieved in the animal pharmacology studies would be more compelling than matching […] drug concentrations. If there is a fundamental technical problem, it should be mentioned in the manuscript. […]
were unable to determine exact values. Due to non-specific binding of PRI-002 to vials used for sampling and storage of CSF, the measured values, which are depicted in the Table below are minimal values and will probably be higher than reported here.
Considering the three CSF samples in which the PRI-002 levels were above the LLOQ, approximately 15% of the mean predose plasma level of all patients at Day 28 (1.97±2.4 ng/ml) reached the CSF and […]
We will include the Table S5 in the supplement and the following sentence in the results part page 11, line 327-331: ”In addition, also CSF levels of PRI-002 were determined. Due to non -specific binding of PRI-002 to vials used for sampling and storage the measured values, which are depicted in the Table S7 are minimal values and the actual values will most probably be higher than reported here.
Considering the three CSF samples in which the PRI -002 levels were above the LLOQ, approximately […]
Table S7 PRI-002 Level in CSF of […]

[6] = plasma, Day 1 (n=9), Max, MCI/mild AD patients
[7] = plasma, Day 1 (n=9), Mean ± SD, MCI/mild AD patients
[8] = plasma, Day 1 (n=9), Min, MCI/mild AD patients
[9] = plasma, Day 28 (n=8), Max, MCI/mild AD patients

In the case of `CC(C)C[C@@H](NC(=O)[C@H](NC(=O)[C@H]1CCCN1)[C@H](C)O)C(=O)N[C@H](Cc1c[nH]cn1)C(=O)N[C@@H](C(=O)N[C@H](Cc1c[nH]cn1)C(=O)N[C@H](CC(N)=O)C(=O)N[C@H](CCCNC(=N)N)C(=O)N[C@H](CCCNC(=N)N)C(=O)N[C@H](CCCNC(=N)N)C(=O)N[C@H](CCCNC(=N)N)C(=O)N[C@H](CCCNC(=N)N)C(N)=O)[C@H](C)O` [PRI-002] (H-[dP][dT][dL][dH][dT][dH][dN][dR][dR][dR][dR][dR]-NH2; N-terminus and C-terminus assumed), the “t-tau, Mean” value (t-tau) is listed as 698.7 pg/mL, the AUC0-4 hour [1] is listed as 33.7 ng·h/mL and the “partial AUC up to 4 h as percentage of total AUC” value [1] is listed as 44.2%. For the same compound, the “WL Recall” value ([2]; Day 1) was 3 and 4 and 1 and 5 and 7 and 9, the WL learn ([2]; Day 1) was 14 and 10 and 13 and 11 and 20 and 16 and 25 and the “WL learn (CERAD Word list learning), Mean” value ([2]; Day 28 (end of treatment), n=8, 300 mg q.d. oral 28 d) was 17.3 and 17.25. For the same compound, the “WL Recall” value ([2]; Day 28) was 4 and 5 and 0 and 6 and 10 and 7, the WL learn ([2]; Day 28) was 15 and 14 and 12 and 16 and 25 and 17 and the “WL Recall (Word list recall test), Mean” value ([2]; Day 28, n=8, 300 mg q.d. oral 28 d) was 6.0. For the same compound, the “WL learn, individual patients” value ([2]; Day 28, 300 mg q.d. oral 28 d) was 16 and 25 (2×) and 17 and 14 (2×) and 15 and 12, the “WL learn (CERAD Word list learning), Mean” value ([2]; Day 56 (End of Study), n=9, PV 0.036 vs placebo (Wilcoxon), 300 mg q.d. oral 28 d) was 19.3 and 19.33 and the “performance in the CERAD word list versus placebo” value ([2]; Day 56, P ≤ 0.05, not corrected for multiplicity, 300 mg q.d. oral 28 d) was “significantly better”. For the same compound, the “WL Recall” value ([2]; Day 56) was 5 and 4 and 3 and 8 and 10, the WL learn ([2]; Day 56) was 18 and 16 and 17 and 24 and 30 and the “WL Recall (Word list recall test), Mean” value ([2]; Day 56, n=9, 300 mg q.d. oral 28 d) was 5.4. For the same compound, the “WL learn, individual patients” value ([2]; Day 56, 300 mg q.d. oral 28 d) was 18 (3×) and 24 and 30 and 17 (2×) and 16 (2×), the “verum treated patients with improvement of memory function in the CERAD word list test” value ([2]; Day 56 versus baseline, of 9 patients, 300 mg q.d. oral 28 d) was 9 and the “Cohen's d effect size, WL learn, PRI-002 vs placebo” value ([2]; day 56, pooled SD, 300 mg q.d. oral 28 d) was 0.94. For the same compound, the “Difference WL learn Baseline (day 1) to EoS (day 56), individual patients” value ([2]; one line per patient 1-9, 300 mg q.d. oral 28 d) was 7 and 4 (2×) and 2 and 5 and 1 and 6 and 3 (2×), the “MRI: ARIA, edematous changes” value [3] was “no edematous changes; also recorded: no ARIA” and the “PRI-002 plasma level, Mean” value ([4]; Day 1, 0 h, n=9, MCI/mild AD patients) was 0 ng/mL. For the same compound, the “AUC 0-4 hours, individual patients” value ([4]; Day 1, one line per patient) was 8.54 ng·h/mL, the “C max (PRI-002 plasma level Day 1), individual patients” value ([4]; Day 1, one line per patient) was 3.43 ng/mL and 1 ng/mL and 2.02 ng/mL and 3.03 ng/mL and 2.84 ng/mL and 10.2 ng/mL and 6.52 ng/mL and 10.4 ng/mL and 0.66 ng/mL and 0.70 ng/mL and 1.00 ng/mL and the “T max, individual patients” value ([4]; Day 1, one line per patient) was 0.50 h (3×) and 2.00 h and 4.00 h (3×) and 1.00 h (2×). For the same compound, the Css trough ([4]; Day 28 (n=8), Max, MCI/mild AD patients) was 7.45, the “C max, individual patients” value ([4]; Day 28, one line per patient) was 1.76 ng/mL and 18.10 ng/mL and 9.37 ng/mL and 31.40 ng/mL and 2.42 ng/mL and 32.90 ng/mL and 2.24 ng/mL and 2.98 ng/mL and the “T max, individual patients” value ([4]; Day 28, one line per patient) was 0.50 h (6×) and 4.00 h and 2.00 h. The “PRI-002 plasma level, individual patients” value ([4]; day 1, 2 h, one line per patient) was 0.878, the “PRI-002 plasma level, individual patients” value ([4]; day 1, Pre-dose, one line per patient) was 0 ng/mL and the AUC(0-t) ([4]; human, plasma, po, 300 mg, plasma, Day 1 (n=9), Mean ± SD, MCI/mild AD patients) was 9.98 ± 7.46 ng·h/mL. The AUC(0-t) ([4]; human, plasma, po, 300 mg, plasma, Day 28 (n=8), Mean ± SD, MCI/mild AD patients) was 26.8 ± 23.8 ng·h/mL, the AUC(0-t) ([4]; human, plasma, po, 300 mg, plasma, Day 28 (n=8), Median, MCI/mild AD patients) was 20.4 ng·h/mL and the Cmax ([4]; human, plasma, po, 300 mg, Cmax, plasma, Day 1 (n=9), Mean ± SD, MCI/mild AD patients) was 4.46 ± 3.71 ng/mL. It also gave a Cmax ([4]; human, plasma, po, 300 mg, Cmax, plasma, Day 1 (n=9), Median, MCI/mild AD patients) of 3.03 ng/mL, a Cmax ([4]; human, plasma, po, 300 mg, Cmax, plasma, Day 28 (n=8), Mean ± SD, MCI/mild AD patients) of 12.6 ± 13.2 ng/mL and a Cmax ([4]; human, plasma, po, 300 mg, Cmax, plasma, Day 28 (n=8), Median, MCI/mild AD patients) of 6.2 ng/mL. The level at 0.5 h ([4]; human, plasma, po, 300 mg, PRI-002 plasma level, Mean, Day 1, 0.5 h, n=9, MCI/mild AD patients) was 3.1 ng/mL, the level at 1 h ([4]; human, plasma, po, 300 mg, PRI-002 plasma level, Mean, Day 1, 1 h, n=9, MCI/mild AD patients) was 3.5 ng/mL and the level at 2 h ([4]; human, plasma, po, 300 mg, PRI-002 plasma level, Mean, Day 1, 2 h, n=9, MCI/mild AD patients) was 2.6 ng/mL. It also gave a level at 4 h ([4]; human, plasma, po, 300 mg, PRI-002 plasma level, Mean, Day 1, 4 h, n=9, MCI/mild AD patients) of 1.9 ng/mL, a level at 0 h ([4]; human, plasma, po, 300 mg, PRI-002 plasma level, Mean, Day 28, 0 h, n=8, MCI/mild AD patients) of 2 ng/mL and a level at 0.5 h ([4]; human, plasma, po, 300 mg, PRI-002 plasma level, Mean, Day 28, 0.5 h, n=8, MCI/mild AD patients) of 12.5 ng/mL. It also gave a level at 1 h ([4]; human, plasma, po, 300 mg, PRI-002 plasma level, Mean, Day 28, 1 h, n=8, MCI/mild AD patients) of 8.4 ng/mL, a level at 2 h ([4]; human, plasma, po, 300 mg, PRI-002 plasma level, Mean, Day 28, 2 h, n=8, MCI/mild AD patients) of 6.1 ng/mL and a level at 4 h ([4]; human, plasma, po, 300 mg, PRI-002 plasma level, Mean, Day 28, 4 h, n=8, MCI/mild AD patients) of 4.6 ng/mL. For the same compound, the Tmax ([4]; human, plasma, po, 300 mg, Tmax, plasma, Day 1 (n=9), Mean ± SD, MCI/mild AD patients) was 1.94 ± 1.61 h, the Tmax ([4]; human, plasma, po, 300 mg, Tmax, plasma, Day 1 (n=9), Median, MCI/mild AD patients) was 1 h and the Tmax ([4]; human, plasma, po, 300 mg, Tmax, plasma, Day 28 (n=8), Mean ± SD, MCI/mild AD patients) was 1.1 ± 1.3 h. For the same compound, the “AUC 0-4 (Day28/Day1), mean systemic drug increase” value ([4]; n=8, Mean ± SD, MCI/mild AD patients) was 2.5 ± 1.3 fold, the “AUC 0-4 hours” value [4, 6] was 22.0 ng·h/mL and the Cmax [4, 6] was 10.4 ng/mL. For the same compound, the Tmax [4, 6] was 4.0 h, the “AUC 0-4 hours” value [4, 7] was 10 ± 7.5 ng·h/mL and the Tmax [4, 7] was “about 2 h”. The “AUC 0-4 hours” value [4, 8] was 2.0 ng·h/mL, the Cmax [4, 8] was 0.7 ng/mL and the “AUC 0-4 hours” value [4, 9] was 70.9 ng·h/mL. For the same compound, the Tmax [4, 9] was 4.0 h, the Tmax ([4]; plasma, Day 28 (n=8), Mean ± SD, MCI/mild AD patients) was roughly 1 h and the “AUC 0-4 hours” value ([4]; plasma, Day 28 (n=8), Min, MCI/mild AD patients) was 5.9 ng·h/mL. For the same compound, the “PRI-002 Level in CSF of individual patients” value ([5]; Day 28, LLOQ 0.200, minimal values due to non-specific binding to vials, one line per patient, 300 mg q.d. oral) was < 0.200 ng PRI-002/ml (6×) and 0.203 ng PRI-002/ml and 0.377 ng PRI-002/ml and 0.304 ng PRI-002/ml, the “share of the mean predose plasma level that reached the CSF” value ([5]; three CSF samples above LLOQ versus predose plasma of all patients at Day 28) was “approximately 15%” and the “share of the mean predose plasma level that reached the CSF” value ([5]; three CSF samples above LLOQ versus predose plasma of patients 2, 3 and 4 at Day 28) was “approximately 8%”.
